Measured values: patent publication US11827629B2, “CDGSH iron sulfur domain 2 activators and use thereof” (National Health Research Institutes, priority 2021, dated 2023)

How the values were obtained:
Cisd2 hKO-het mice = assay: In vivo NAFLD study in Cisd2 hKO-het mice (histopathology, serum biochemistry); conditions: Cisd2 hKO-het male mice, 0.015 wt % in diet for 4 weeks
Description: Compound 28 of this invention was evaluated for its anti-nonalcoholic fatty liver disease (NAFLD) effect and in vivo toxicity following an assay described below.
Cisd2 floxed allele (Cisd2 f/f) mice were prepared following a procedure described in Wang et al., Hum. Mol. Genet. 23, 4770-85(2014). To obtain Cisd2 heterozygous hepatocyte-specific knockout (Cisd2 hKO-het, Cisd2 f/+; Alb-Cre Tg), Cisd2 f/f mice were bred with Albumin-Cre transgenic (Alb-Cre Tg, JAX003574) mice. After one generation, Cisd2 hKO-het mice were obtained. Male mice were chosen to be used in this study. All mice have a pure or congenic C57BL/6 background and were bred/housed in a specific pathogen-free facility with a 12 h light/12 h dark cycle at a temperature of 20-22° C. Groups of mice at 8 weeks old were provided a diet (AIN93G, TestDiet) containing a vehicle (0.14 wt % of DMF and 0.15 wt % of Cremophor® EL) or compound 28 (0.015 wt %) for 4 weeks.
Histopathology was used to evaluate the efficacy of Compound 28 in ameliorating NAFLD. Liver tissues were collected and fixed with 10% formalin at 4° C. overnight. They were then processed in a tissue processor (STP120, MICROM), followed by embedding in paraffin. H&E of tissue sections (3-4 m) were carried out by a standard protocol. […]

Male C57BL/6 mice [1] = assay: In vivo doxorubicin-induced cachexia and hepatotoxicity; conditions: 1 mg/kg i.p. twice a day for 2 days, doxorubicin 25 mg/kg i.p.
Description: Compound 28 was used in rescuing doxorubicin-induced cachexia and hepatotoxicity in the following in vivo study.
(§1) Male C57BL/6 mice between 7 and 8 months were pretreated with Compound 28 (1 mg/kg) or a vehicle (1.5 wt % of DMF and 3 wt % of Cremophor® EL in PBS) via intraperitoneal injection (i.p.) twice a day for 2 days. At day 0, 1 hour after the treatment with compound 28, doxorubicin (25 mg/kg, i.p.) or another vehicle (10% DMSO in normal saline) were injected into mice.
Different tissues including livers, cardiac muscle (left ventricle), skeletal muscle (gastrocnemius), brown adipose tissue, and white adipose tissue were weighted and collected after mice were sacrificed. The tissues were fixed with 10% formalin at 4° C. overnight, processed in a tissue processor, and then embedded in paraffin. H&E of tissue sections (3-4 m) were carried out by a standard protocol as described above.

Male C57BL/6 mice [2] = assay: In vivo protection against doxorubicin-induced cardiotoxicity (ECG, echocardiography); conditions: 1 mg/kg i.p. twice a day for 2 days, doxorubicin 25 mg/kg i.p., ECG day 4, heart echo day 5
Description: Compound 28 was evaluated for protecting against doxorubicin-induced cardiotoxicity in mice.
as §1, with “months old” for “months”, “were treated” for “were pretreated”, “28 (at a dosage of 1” for “28 (1”, “with Compound” for “with compound”, “saline) was” for “saline) were”
Electrocardiogram (ECG) and heart echo on day 4 and day 5 respectively were used as indications of cardiac function. […]
Functional test of heart using ECG was performed as described in Yeh et al., PLoS Biol. 2019, 17, e3000508. […] Continuous 5-minute ECGs were obtained using subcutaneous electrodes attached at the four limbs and recorded with PowerLab® data acquisition system (model ML866, ADInstruments, Colorado Springs, CO) and Animal Bio Amp® (model ML136, ADInstruments). ECG analysis was performed in an unbiased fashion where 1500 beats were analyzed using LabChart® 7 Pro version 7.3.1 (ADInstruments, Inc). […]
Transthoracic mouse echocardiography was used to provide noninvasive imaging of the heart on a VisualSonics® VeVo® 2100 imaging system (VisualSonics, Toronto, Ontario, Canada). […] Body temperature was maintained and monitored at 36° C. to 37° C. on a heated pad (TC-1000, CWE Inc. USA). ECGs were continuously monitored. […]

O=C(CS(=O)(=O)c1nccs1)N1Cc2ccccc2C1 [Compound 28, 1-(1,3-dihydro-2H-isoindol-2-yl)-2-(1,3-thiazol-2-ylsulfonyl)ethanone] was tested, and the “anti-nonalcoholic fatty liver disease (NAFLD) effect” value (Cisd2 hKO-het mice; liver histopathology) was “ameliorated NAFLD in Cisd2 hKO-het mice”, the in vivo toxicity (Cisd2 hKO-het mice; serum ALT, AST, BUN, CRE) was “without observed toxicity” and the “effect on doxorubicin-induced hepatotoxicity” value (Male C57BL/6 mice [1]) was “alleviated doxorubicin-induced hepatotoxicity”. The “effect on doxorubicin-induced cachexia” value (Male C57BL/6 mice [1]; tissue weights) was “alleviated doxorubicin-induced hepatotoxicity and cachexia” and the “protection against doxorubicin-induced cardiotoxicity” value (Male C57BL/6 mice [2]) was “protected against doxorubicin-induced cardiotoxicity”.
